Data taken from patent publication US11130733B2, “4-OXO-alkylated tetramic acid compound, preparation method and use thereof” (BEIJING JOEKAI BIOTECH. LLC, priority 2017, dated 2021).

What was measured:
[1] = system: Salmonella typhimurium TA98; test: Mini Ames experiment, strain TA98; type: cell-based
Description: (§1) Histidine auxotrophic strains of Salmonella typhimurium were cultured in a special medium with quite a low content of histidine. The strains were difficult to divide due to lack of nutrition. If a test compound has mutagenicity, a large number of cells will undergo reverse mutation, synthesizing histidine by themselves and developing into colonies visible to the naked eye. In view of the close relationship between mutagenicity and carcinogenesis of chemicals, this method has been widely used in screening carcinogens. Some chemicals need metabolic activation to induce mutagenicity. Mammalian microsomal enzyme S9 can be added into the test system to eliminate the influence of metabolic activation on generation of mutagenicity.
(§2) […] Mini Ames test with compound 50561

[2] = system: Salmonella typhimurium TA100; test: Mini Ames experiment, strain TA100; type: cell-based
Description: as §1, §2

[3] = system: Drosophilae containing and expressing human Abeta42 gene; test: Pavlov's olfactory-related instantaneous memory test in Drosophila; type: in vivo; settings: test medicament 100 μM, 50 μL per 100 drosophilae, 7 consecutive days; FIG. 1 and FIG. 2
Description: Drosophila has a classical learning and memory paradigm, known as Pavlov's olfactory-related instantaneous memory. During the training program, a group of about 100 drosophilae were exposed sequentially to two odors, i.e., 3-octanol and 4-methylcyclohexanol, each odor for 60 seconds, and to fresh air for 45 seconds therebetween. During exposure to the first odor, the drosophilae were electrocuted on their feet (1.5-second pulses at 3.5-second intervals, 60V), while no electrocution was exerted during exposure to the second odor. In order to detect “instantaneous memory” (also known as “learning”), drosophilae were transferred to the selection area in the T maze immediately after training and forced to choose between the two odors. The drosophilae in each T-maze arm were then captured, anesthetized, and counted. The behavior index was calculated from the distribution of drosophilae in the T maze. […] In each experiment, the age of the control group was matched with that of the experimental group.
Pharmacodynamic evaluation of the candidate compounds: Drosophilae containing and expressing human Abeta42 gene were selected as a diseased control, and drosophilae containing but not expressing human Abeta42 gene were selected as a healthy control. The day after emergence of the drosophilae, male drosophilae were selected and fed. Starting from the third day, drosophilae were fed with a test medicament (100 μM, 50 μL per 100 drosophilae) for 7 consecutive days, 4 hours each day. The above memory test was performed on the drosophilae on the tenth day.

[4] = system: Drosophilae containing and expressing human Abeta42 gene; test: as above; type: in vivo; settings: FIG. 3; with increase of dosage; compared with positive compound memantine hydrochloride
[5] = TA98, With Metabolic Activation, control article 0.4 μg per well
[6] = TA100, With Metabolic Activation, control article 0.4 μg per well
[7] = TA98, Without Metabolic Activation, control article 2.0 μg per well
[8] = TA100, Without Metabolic Activation, control article 0.2 μg per well

| Compound | ability to improve the learning and memory of drosophilae [3] | dose-effect relationship to improve memory of drosophilae [4] | further results |
| --- | --- | --- | --- |
| Nc1ccc2cc3ccccc3cc2c1 [Compound 2-AA, reference compound] |  |  | Mean Revertants Per Well [1, 5]: 297.67; Ratio Treated/Solvent [1, 5]: 35.72; Mean Revertants Per Well [2, 6]: 317.67; Ratio Treated/Solvent [2, 6]: 9.72 |
| O=[N+]([O-])c1ccc2c(c1)Cc1ccccc1-2 [Compound 2-NF, reference compound] |  |  | Mean Revertants Per Well [1, 7]: 421.00; Ratio Treated/Solvent [1, 7]: 61.61 |
| O=C1C=C(OCc2ccccc2F)[C@H](Cc2ccccc2)N1 [Compound 51121] | best ability to improve the learning and memory of drosophilae | eventually reaches or exceeds the level of the activity of the positive compound memantine hydrochloride |  |
| O=C1C=C(OCc2cccs2)[C@H](Cc2ccccc2)N1 [Compound 51151] | best ability to improve the learning and memory of drosophilae | eventually reaches or exceeds the level of the activity of the positive compound memantine hydrochloride |  |
| O=C1C=C(OCc2cccc3ccccc23)[C@H](Cc2ccccc2)N1 [Compound 51311] | best ability to improve the learning and memory of drosophilae | eventually reaches or exceeds the level of the activity of the positive compound memantine hydrochloride |  |
| CC(=O)Oc1ccc(COC2=CC(=O)N[C@H]2Cc2ccccc2)cc1 [Compound 51351] | best ability to improve the learning and memory of drosophilae | eventually reaches or exceeds the level of the activity of the positive compound memantine hydrochloride |  |
| COc1ccc(C[C@@H]2NC(=O)C=C2OCc2ccc(OC(C)=O)cc2)cc1 [Compound 60111] | quite a good ability to improve learning and memory of drosophilae |  |  |
| [N-]=[N+]=[N-].[Na+] [SA, reference compound] |  |  | Mean Revertants Per Well [2, 8]: 195.33; Ratio Treated/Solvent [2, 8]: 7.92 |
